# Reference: patent US5886016A, “Benzopyranopyrazolyl derivatives for the treatment of inflammation” (G.D. Searle & Co., priority 1997, dated 1999)
# Columns and labels:
# [1] = biological target: T1, Human COX-2 (Homo sapiens, UniProt P35354); assay: Evaluation of COX-2 activity in vitro (recombinant enzyme, PGE2 ELISA); type: biochemical; details: 10 μM arachidonic acid; 10-20 minutes pre-incubation; pH 8.0
# T1 construct: A 2.0 kb fragment containing the coding region of either human or murine COX-1 or human or murine COX-2; made in house; host or cells: SF9 insect cells (recombinant baculovirus, pVL1393); CHAPS-solubilized membranes
# T1 sequence (P35354 18-604): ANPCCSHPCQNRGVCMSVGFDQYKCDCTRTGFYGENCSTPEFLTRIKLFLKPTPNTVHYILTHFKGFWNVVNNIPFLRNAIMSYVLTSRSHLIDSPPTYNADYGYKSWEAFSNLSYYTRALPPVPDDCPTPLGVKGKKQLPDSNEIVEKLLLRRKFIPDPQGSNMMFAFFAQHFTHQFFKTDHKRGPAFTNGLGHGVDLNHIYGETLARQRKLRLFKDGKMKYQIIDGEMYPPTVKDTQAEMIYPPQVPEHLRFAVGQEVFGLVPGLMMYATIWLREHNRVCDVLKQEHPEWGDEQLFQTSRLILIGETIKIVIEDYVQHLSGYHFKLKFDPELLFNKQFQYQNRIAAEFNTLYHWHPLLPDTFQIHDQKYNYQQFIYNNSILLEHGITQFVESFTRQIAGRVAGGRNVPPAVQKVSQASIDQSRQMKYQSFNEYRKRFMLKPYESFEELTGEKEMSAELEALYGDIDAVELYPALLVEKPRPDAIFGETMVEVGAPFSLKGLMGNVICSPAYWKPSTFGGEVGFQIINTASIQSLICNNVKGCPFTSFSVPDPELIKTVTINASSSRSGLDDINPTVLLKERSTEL
# Description: The COX-2 inhibition activity of the compounds of this invention illustrated in the Examples was determined by the following methods.
# (§1) a. Preparation of recombinant COX baculoviruses
# (§2) A 2.0 kb fragment containing the coding region of either human or murine COX-1 or human or murine COX-2 was cloned into a BamH1 site of the baculovirus transfer vector pVL1393 (Invitrogen) to generate the baculovirus transfer vectors for COX-1 and COx-2 in a manner similar to the method of D. R. O'Reilly et al (Baculovirus Expression Vectors: A Laboratory Manual (1992)). Recombinant baculoviruses were isolated by transfecting 4 μg of baculovirus transfer vector DNA into SF9 insect cells (2>10e8) along with 200 ng of linearized baculovirus plasmid DNA by the calcium phosphate method. See M. D. Summers and G. E. Smith, A Manual of Methods for Baculovirus Vectors and Insect Cell Culture Procedures, Texas Agric. Exp. Station Bull. 1555 (1987). Recombinant viruses were purified by three rounds of plaque purification and high titer (10E7-10E8 pfu/ml) stocks of virus were prepared. For large scale production, SF9 insect cells were infected in 10 liter fermentors (0.5×10^6 /ml) with the recombinant baculovirus stock such that the multiplicity of infection was 0.1. After 72 hours the cells were centrifuged and the cell pellet homogenized in Tris/Sucrose (50 mM: 25%, pH 8.0) containing 1% 3-[(3-cholamidopropyl)dimethylammoniol]-1-propanesulfonate (CHAPS). The homogenate was centrifuged at 10,000×G for 30 minutes, and the resultant supernatant was stored at -80° C. before being assayed for Cox activity.
# (§3) COX activity was assayed as PGE2 formed/μg protein/time using an ELISA to detect the prostaglandin released. CHAPS-solubilized insect cell membranes containing the appropriate COX enzyme were incubated in a potassium phosphate buffer (50 mM, pH 8.0) containing epinephrine, phenol, and heme with the addition of arachidonic acid (10 μM). Compounds were pre-incubated with the enzyme for 10-20 minutes prior to the addition of arachidonic acid. Any reaction between the arachidonic acid and the enzyme was stopped after ten minutes at 37° C./room temperature by transferring 40 μl of reaction mix into 160 μl ELISA buffer and 25 μM indomethacin. The PGE2 formed was measured by standard ELISA technology (Cayman Chemical).
# [2] = biological target: T2, Human COX-1 (Homo sapiens, UniProt P23219); assay: Evaluation of COX-1 activity in vitro (recombinant enzyme, PGE2 ELISA); type: biochemical; details: 10 μM arachidonic acid; 10-20 minutes pre-incubation; pH 8.0
# T2 construct: A 2.0 kb fragment containing the coding region of either human or murine COX-1 or human or murine COX-2; made in house; host or cells: SF9 insect cells (recombinant baculovirus, pVL1393); CHAPS-solubilized membranes
# Source text: Evaluation of COX-1 and COX-2 activity in vitro
# as §1, §2
# b. Assay for COX-1 and COX-2 activity:
# as §3
# [3] = tested on: carrageenan foot edema (rat paw); assay: Rat Carrageenan Foot Pad Edema Test; type: in vivo, Male Sprague-Dawley rats; details: @ 30 mg/kg body weight; oral; 3 hours after carrageenan
# Description: Rat Carrageenan Foot Pad Edema Test
# Male Sprague-Dawley rats were selected in each group so that the average body weight was as close as possible. Rats were fasted with free access to water for over sixteen hours prior to the test. […] One hour later a subplantar injection of 0.1 mL of 1% solution of carrageenan/sterile 0.9% saline was administered and the volume of the injected foot was measured with a displacement plethysmometer connected to a pressure transducer with a digital indicator. Three hours after the injection of the carrageenan, the volume of the foot was again measured.
# [4] = tested on: hyperalgesic foot withdrawal (rat carrageenan); assay: Rat Carrageenan-induced Analgesia Test; type: in vivo, Male Sprague-Dawley rats; details: @ 30 mg/kg body weight; oral; 3 hours after carrageenan
# Description: Rat Carrageenan-induced Analgesia Test
# Male Sprague-Dawley rats were treated as previously described for the Carrageenan Foot Pad Edema test. Three hours after the injection of the carrageenan, the rats were placed in a special plexiglass container with a transparent floor having a high intensity lamp as a radiant heat source, positionable under the floor. After an initial twenty minute period, thermal stimulation was begun on either the injected foot or on the contralateral uninjected foot. A photoelectric cell turned off the lamp and timer when light was interrupted by paw withdrawal. The time until the rat withdraws its foot was then measured. The withdrawal latency in seconds was determined for the control and drug-treated groups, and percent inhibition of the hyperalgesic foot withdrawal determined.
# T2 sequence (P23219 24-599): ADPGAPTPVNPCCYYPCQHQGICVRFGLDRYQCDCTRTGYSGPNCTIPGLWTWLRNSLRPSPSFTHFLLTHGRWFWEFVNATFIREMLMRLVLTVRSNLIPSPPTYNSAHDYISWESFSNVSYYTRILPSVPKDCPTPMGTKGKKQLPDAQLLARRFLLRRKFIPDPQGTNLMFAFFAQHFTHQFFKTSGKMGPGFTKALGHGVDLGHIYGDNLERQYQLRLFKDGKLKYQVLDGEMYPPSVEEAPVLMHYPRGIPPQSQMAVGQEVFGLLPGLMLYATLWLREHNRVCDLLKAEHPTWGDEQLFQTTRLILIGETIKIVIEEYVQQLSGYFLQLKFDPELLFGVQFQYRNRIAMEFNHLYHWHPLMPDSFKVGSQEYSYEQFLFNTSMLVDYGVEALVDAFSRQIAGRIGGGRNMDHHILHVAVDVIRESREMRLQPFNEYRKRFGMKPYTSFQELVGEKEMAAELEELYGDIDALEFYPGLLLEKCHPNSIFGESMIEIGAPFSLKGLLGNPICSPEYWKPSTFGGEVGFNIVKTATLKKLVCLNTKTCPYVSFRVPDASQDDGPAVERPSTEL
SMILES,IC50 [1],IC50 [2],RAT PAW EDEMA % Inhibition [3],ANALGESIA % Inhibition [4]
"NS(=O)(=O)c1ccc(-n2nc(C(F)F)c3c2-c2ccc(F)cc2CS3)cc1 [Example 31, 4-[3-(difluoromethyl)-1,5-dihydro-7-fluoro-[2]benzothiopyrano[4,3-c]pyrazol-1-yl]benzenesulfonamide]",< 100 nM,200 nM,,
NS(=O)(=O)c1ccc(-n2nc(CO)c3c2-c2ccc(F)cc2CS3)cc1 [Example 36],1700 nM,6700 nM,,
N#Cc1nn(-c2ccc(S(N)(=O)=O)cc2)c2c1SCc1cc(F)ccc1-2 [Example 35],100 nM,800 nM,,
"Cc1ccc2c(c1)CSc1c(C(F)F)nn(-c3ccc(S(N)(=O)=O)cc3)c1-2 [Example 24, 4-[3-(difluoromethyl)-1,5-Dihydro-7-methyl-[2]benzothiopyrano[4,3-c]pyrazol-1-yl]benzenesulfonamide]",< 100 nM,1200 nM,,
"CS(=O)(=O)c1ccc(-n2nc(C(F)(F)F)c3c2-c2ccc(F)cc2CS3)cc1 [Example 32, 1,5-dihydro-7-fluoro-1-[(4-methylsulfonyl)phenyl]-3-(trifluoromethyl)-[2]benzothiopyrano[4,3,c]pyrazole]",200 nM,8900 nM,,
"Cc1ccc2c(c1)COc1c(C(F)(F)F)nn(-c3ccc(S(N)(=O)=O)cc3)c1-2 [Example 28, 4-[1,5-dihydro-7-methyl-3-(trifluoromethyl)-[2]benzopyrano[4,3-c]pyrazol-1-yl]benzenesulfonamide]",< 100 nM,> 100000 nM,,
"Cc1ccc2c(c1)COc1c(C(F)F)nn(-c3ccc(S(N)(=O)=O)cc3)c1-2 [Example 30, 4-[3-(difluoromethyl)-1,5-dihydro-7-methyl[2]benzopyrano[4,3-c]pyrazol-1-yl]benzenesulfonamide]",< 100 nM,10700 nM,,
"COc1ccc2c(c1F)CSc1c(C(F)(F)F)nn(-c3ccc(S(N)(=O)=O)cc3)c1-2 [Example 1, 4-[6-fluoro-1,5-dihydro-7-methoxy-3-(trifluoromethyl)-[2]benzothiopyrano[4,3-c]pyrazol-1-yl]benzenesulfonamide]",,,43%,35%
"COc1c(F)cc2c(c1F)CSc1c(C(F)(F)F)nn(-c3ccc(S(N)(=O)=O)cc3)c1-2 [Example 29, 4-[6,8-difluoro-1,5-dihydro-7-methoxy-3-(trifluoromethyl)[2]benzothiopyrano[4,3-c]pyrazol-1-yl]benzenesulfonamide]",300 nM,> 100000 nM,,
"COc1ccc2c(c1)COc1c(C(F)(F)F)nn(-c3ccc(S(N)(=O)=O)cc3)c1-2 [Example 26, 4-[1,5-dihydro-7-methoxy-3-(trifluoromethyl)-[2]benzopyrano[4,3-c]pyrazol-1-yl]benzenesulfonamide]",< 100 nM,200 nM,,
"NS(=O)(=O)c1ccc(-n2nc(C(F)(F)F)c3c2-c2cc(Cl)sc2CS3)cc1 [Example 21, 4-[7-chloro-1,5-dihydro-3-trifluoromethylthieno[3',2':4,5]thiopyrano[3,2-c]pyrazol-1-yl]benzenesulfonamide]",,,,14%
"NS(=O)(=O)c1ccc(-n2nc(C(F)(F)F)c3c2-c2ccccc2SC3)cc1 [Example 7, 4-[1,4-dihydro-3-(trifluoromethyl)-[1]benzothiopyrano[4,3-c]pyrazol-1-yl]benzenesulfonamide]",,9700 nM,,
"CN(C)C=NS(=O)(=O)c1ccc(-n2nc(C#N)c3c2-c2ccc(F)cc2CS3)cc1 [Example 34, 4-(3-cyano-1,5-dihydro-7-fluoro-[2]benzothiopyrano[4,3-c]pyrazol-1-yl) -N-[(dimethylamino)methylene]-benzenesulfonamide]",4200 nM,> 100000 nM,,
"NS(=O)(=O)c1ccc(-n2nc(C(F)(F)F)c3c2-c2ccccc2OC3)cc1 [Example 3, 4-[1,4-dihydro-3-(trifluoromethyl)-[1]benzopyrano[4,3-c]pyrazol-1-yl]benzenesulfonamide]",,7100 nM,,
"COc1cc2c(c(OC)c1OC)-c1c(c(C(F)(F)F)nn1-c1ccc(S(N)(=O)=O)cc1)OC2 [Example 27, 4-[1,5-dihydro-7.8,9-trimethoxy-3-(trifluoromethyl)-[2]benzopyrano[4,3-c]pyrazol-1-yl]benzenesulfonamide]",59900 nM,> 100000 nM,,
"NS(=O)(=O)c1ccc(-n2nc(C(F)F)c3c2-c2ccc(Cl)cc2CS3)cc1 [Example 25, 4-[7-chloro-3-(difluoromethyl)-1,5-dihydro-[2]benzothiopyrano[4,3-c]pyrazol-1-yl]benzenesulfonamide]",< 100 nM,1500 nM,,
NS(=O)(=O)c1ccc(-n2nc(C(F)(F)F)c3c2-c2ccc4c(c2CS3)OCO4)cc1 [Example 33],< 100 nM,< 100 nM,,
"NS(=O)(=O)c1ccc(-n2nc(C(F)(F)F)c3c2-c2ccccc2CS3)cc1 [Example 16, 4-[1,5-dihydro-3-(trifluoromethyl)-[2]benzothiopyrano[4 3-c]pyrazol-1-yl]benzenesulfonamide]",,400 nM,,
